# In ChEMBL document CHEMBL4765323, “Design, synthesis, and biological evaluation of novel miconazole analogues containing selenium as potent antifungal agents” (Eur J Med Chem, 2020):
# The source made the active and inactive calls. The rule behind the calls is not given here.
# Legend:
# [1] = system: Candida albicans; test: Inhibition of CYP51 in azole-resistant Candida albicans ATCC […] assessed as ergosterol level at 0.5 ug/ml incubated for 16 hrs by LC-MS analysis relative to control; set-up: scale not given: the % may be the effect or the level left; conditions: dose 0.5 µg/ml
# [2] = system: Candida albicans; test: Inhibition of CYP51 in azole-resistant Candida albicans ATCC […] assessed as inhibition of ergosterol biosynthesis by measuring ergosterol content at 8 ug/ml incubated for 16 hrs by LC-MS analysis relative to control; set-up: scale not given: the % may be the effect or the level left; conditions: dose 8.0 µg/ml
# [3] = system: Candida albicans; test: Inhibition of CYP51 in azole-resistant Candida albicans ATCC […] assessed as ergosterol level at 2 ug/ml incubated for 16 hrs by LC-MS analysis relative to control; set-up: scale not given: the % may be the effect or the level left; conditions: dose 2.0 µg/ml
# [4] = system: Candida albicans; test: Antibiofilm activity against FCZ-Resistant Candida albicans CPCC400616 assessed as sessile minimum inhibitory concentration of biofilm formation at 50% after 24 hrs by XTT assay; type: functional
# [5] = system: Candida albicans; test: Inhibition of CYP51 in azole-resistant Candida albicans ATCC […] assessed as Eburicol level at 0.5 ug/ml incubated for 16 hrs by LC-MS analysis relative to control; set-up: scale not given: the % may be the effect or the level left; conditions: dose 0.5 µg/ml
# [6] = system: Pichia kudriavzevii; test: Antifungal activity against Candida krusei AS 2.1045 measured after 24 hrs by micro-broth dilution assay; type: functional
# [7] = system: Candida albicans; test: Antifungal activity against fluconazole-resistant Candida albicans 17 measured after 24 hrs by micro-broth dilution assay; type: functional
# [8] = system: Candida albicans; test: Antifungal activity against fluconazole-resistant Candida albicans CaR measured after 24 hrs by micro-broth dilution assay; type: functional
# [9] = system: Candida albicans; test: Fungicidal activity against Candida albicans CPCC400616 at MIC to 8 times MIC measured after 24 hrs by time-kill curve assay; type: functional
# [10] = system: Candida albicans; test: Antifungal activity against Candida albicans ATCC SC5314 measured after 24 hrs by micro-broth dilution assay; type: functional
# [11] = system: Candida albicans; test: Antifungal activity against Candida albicans 901 measured after 24 hrs by micro-broth dilution assay; type: functional
# [12] = system: Candida albicans; test: Antibiofilm activity against FCZ-Resistant Candida albicans CPCC400616 assessed as sessile minimum inhibitory concentration of biofilm formation at 80% after 24 hrs by XTT assay; type: functional
# [13] = system: Aspergillus fumigatus; test: Antifungal activity against Aspergillus fumigatus CGMCC 3.7795 measured after 72 hrs by micro-broth dilution assay; type: functional
# [14] = system: Candida albicans; test: Inhibition of CYP51 in azole-resistant Candida albicans ATCC […] assessed as Lanosterol level at 0.5 ug/ml incubated for 16 hrs by LC-MS analysis relative to control; set-up: scale not given: the % may be the effect or the level left; conditions: dose 0.5 µg/ml
# [15] = system: Candida albicans; test: Inhibition of CYP51 in azole-resistant Candida albicans ATCC […] assessed as Eburicol level at 2 ug/ml incubated for 16 hrs by LC-MS analysis relative to control; set-up: scale not given: the % may be the effect or the level left; conditions: dose 2.0 µg/ml
# [16] = system: Candida albicans; test: Inhibition of CYP51 in azole-resistant Candida albicans ATCC […] assessed as Lanosterol level at 8 ug/ml incubated for 16 hrs by LC-MS analysis relative to control; set-up: scale not given: the % may be the effect or the level left; conditions: dose 8.0 µg/ml
# [17] = system: Candida albicans; test: Inhibition of CYP51 in azole-resistant Candida albicans ATCC […] assessed as Obtusifoliol level at 0.125 ug/ml incubated for 16 hrs by LC-MS analysis relative to control; set-up: scale not given: the % may be the effect or the level left; conditions: dose 0.125 µg/ml
# [18] = system: Candida albicans; test: Antibiofilm activity against FCZ-Resistant Candida albicans CPCC400616 assessed as sessile minimum inhibitory concentration of biofilm formation at 80% after 6 hrs by XTT assay; type: functional
# [19] = system: Cryptococcus neoformans; test: Antifungal activity against Cryptococcus neoformans CGMCC2.3161 measured after 72 hrs by micro-broth dilution assay; type: functional
# [20] = system: Candida albicans; test: Fungicidal activity against Candida albicans CPCC400616 at 8 times MIC measured after 4 hrs by time-kill curve assay; type: functional, organism-based
# [21] = system: Candida albicans; test: Antifungal activity against fluconazole-resistant Candida albicans strain 904 measured after 24 hrs by micro-broth dilution assay; type: functional
# [22] = system: Candida albicans; test: Antibiofilm activity against FCZ-Resistant Candida albicans CPCC400616 assessed as sessile minimum inhibitory concentration of biofilm formation at 50% after 1.5 hrs by XTT assay; type: functional
# [23] = system: Candida albicans; test: Inhibition of CYP51 in azole-resistant Candida albicans ATCC […] assessed as Obtusifoliol level at 2 ug/ml incubated for 16 hrs by LC-MS analysis relative to control; set-up: scale not given: the % may be the effect or the level left; conditions: dose 2.0 µg/ml
# [24] = system: Candida albicans; test: Inhibition of CYP51 in azole-resistant Candida albicans ATCC […] assessed as Obtusifoliol level at 8 ug/ml incubated for 16 hrs by LC-MS analysis relative to control; set-up: scale not given: the % may be the effect or the level left; conditions: dose 8.0 µg/ml
# [25] = Ratio of hemolysis activity in rabbit RBC to MIC for Candida albicans; type: toxicity; conditions: rabbit red blood cells (RBC)
# [26] = system: Candida albicans; test: Inhibition of CYP51 in azole-resistant Candida albicans ATCC […] assessed as Obtusifoliol level at 0.5 ug/ml incubated for 16 hrs by LC-MS analysis relative to control; set-up: scale not given: the % may be the effect or the level left; conditions: dose 0.5 µg/ml
# [27] = system: [Candida] zeylanoides; test: Antifungal activity against Candida zeylanoides CMGCC2.3739 measured after 24 hrs by micro-broth dilution assay; type: functional; conditions: Dujonia zeylanoides
# [28] = system: Candida albicans; test: Antibiofilm activity against FCZ-Resistant Candida albicans CPCC400616 assessed as sessile minimum inhibitory concentration of biofilm formation at 80% after 3 hrs by XTT assay; type: functional
# [29] = system: Candida albicans; test: Inhibition of CYP51 in azole-resistant Candida albicans ATCC […] assessed as Lanosterol level at 0.125 ug/ml incubated for 16 hrs by LC-MS analysis relative to control; set-up: scale not given: the % may be the effect or the level left; conditions: dose 0.125 µg/ml
# [30] = Ratio of MFC for fungicidal activity against Candida albicans CPCC400616 to MIC for Antifungal activity against Candida albicans CPCC400616; type: functional; conditions: time 24 hrs
# [31] = system: Candida albicans; test: Antifungal activity against fluconazole-resistant Candida albicans 632 measured after 24 hrs by micro-broth dilution assay; type: functional
# [32] = system: Candida albicans; test: Antibiofilm activity against FCZ-Resistant Candida albicans CPCC400616 assessed as sessile minimum inhibitory concentration of biofilm formation at 50% after 6 hrs by XTT assay; type: functional
# [33] = system: Candida albicans; test: Antibiofilm activity against FCZ-Resistant Candida albicans CPCC400616 assessed as sessile minimum inhibitory concentration of biofilm formation at 50% after 3 hrs by XTT assay; type: functional
# [34] = system: Candida albicans; test: Antifungal activity against Candida albicans CPCC400616 measured after 24 hrs by micro-broth dilution assay; type: functional
# [35] = system: Candida albicans; test: Inhibition of CYP51 in azole-resistant Candida albicans ATCC […] assessed as Obtusifoliol level at 0.03125 ug/ml incubated for 16 hrs by LC-MS analysis relative to control; set-up: scale not given: the % may be the effect or the level left; conditions: dose 0.03125 µg/ml
# [36] = system: Candida albicans; test: Inhibition of CYP51 in azole-resistant Candida albicans ATCC […] assessed as Eburicol level at 0.03125 ug/ml incubated for 16 hrs by LC-MS analysis relative to control; set-up: scale not given: the % may be the effect or the level left; conditions: dose 0.03125 µg/ml
# [37] = system: Candida albicans; test: Inhibition of CYP51 in azole-resistant Candida albicans ATCC […] assessed as Lanosterol level at 2 ug/ml incubated for 16 hrs by LC-MS analysis relative to control; set-up: scale not given: the % may be the effect or the level left; conditions: dose 2.0 µg/ml
# [38] = system: Erythrocyte; test: Hemolytic activity in rabbit RBC assessed as hemolysis ratio at 1 ug/ml measured after 3 hrs relative to control; type: ADME, cell-based, Oryctolagus cuniculus; conditions: dose 1 µg/ml
# [39] = system: Candida albicans; test: Fungicidal activity against Candida albicans CPCC400616 measured after 48 hrs; type: functional
# [40] = system: Nakaseomyces glabratus; test: Antifungal activity against clinical isolate Candida glabrata measured after 24 hrs by micro-broth dilution assay; type: functional
# [41] = system: Candida albicans; test: Inhibition of CYP51 in azole-resistant Candida albicans ATCC […] assessed as Eburicol level at 0.125 ug/ml incubated for 16 hrs by LC-MS analysis relative to control; set-up: scale not given: the % may be the effect or the level left; conditions: dose 0.125 µg/ml
# [42] = system: Candida albicans; test: Inhibition of CYP51 in azole-resistant Candida albicans ATCC […] assessed as Eburicol level at 8 ug/ml incubated for 16 hrs by LC-MS analysis relative to control; set-up: scale not given: the % may be the effect or the level left; conditions: dose 8.0 µg/ml
# [43] = system: Candida parapsilosis; test: Antifungal activity against Candida parapsilosis ATCC 22019 measured after 24 hrs by micro-broth dilution assay; type: functional; conditions: Lodderomyces parapsilosis
# [44] = system: Candida albicans; test: Antibiofilm activity against FCZ-Resistant Candida albicans CPCC400616 assessed as sessile minimum inhibitory concentration of biofilm formation at 80% after 1.5 hrs by XTT assay; type: functional
# [45] = system: Candida albicans; test: Inhibition of CYP51 in azole-resistant Candida albicans ATCC […] assessed as Lanosterol level at 0.03125 ug/ml incubated for 16 hrs by LC-MS analysis relative to control; set-up: scale not given: the % may be the effect or the level left; conditions: dose 0.03125 µg/ml
# [46] = system: Candida albicans; test: Inhibition of CYP51 in azole-resistant Candida albicans ATCC […] assessed as ergosterol level at 0.125 ug/ml incubated for 16 hrs by LC-MS analysis relative to control; set-up: scale not given: the % may be the effect or the level left; conditions: dose 0.125 µg/ml
# [47] = system: Candida albicans; test: Inhibition of CYP51 in azole-resistant Candida albicans ATCC […] assessed as ergosterol level at 0.03125 ug/ml incubated for 16 hrs by LC-MS analysis relative to control; set-up: scale not given: the % may be the effect or the level left; conditions: dose 0.03125 µg/ml
smiles,measurement,setting,value
Clc1ccc(C(Cn2ccnc2)[Se]Cc2ccccc2Cl)c(Cl)c1 (configuration not stated),Activity,[1],78.9%
same,Activity,[2],77.7%
same,Activity,[3],19.8%
same,Activity,[4],>128 µg/mL
same,Activity,[5],70.3%
same,MIC,[6],0.13 µg/mL
same,MIC,[7],0.13 µg/mL
same,MIC,[8],0.06 µg/mL
same,Activity,[9],>3 log10CFU/ml
same,MIC,[10],0.01 µg/mL
same,MIC,[11],0.5 µg/mL
same,Activity,[12],>128 µg/mL
same,MIC,[13],2 µg/mL
same,Activity,[14],10%
same,Activity,[15],75.1%
same,Activity,[16],12.4%
same,Activity,[17],9.5%
same,Activity,[18],>128 µg/mL
same,MIC,[19],0.25 µg/mL
same,Activity,[20],Active
same,MIC,[21],0.25 µg/mL
same,Activity,[22],4 µg/mL
same,Activity,[23],7.8%
same,Activity,[24],8.1%
same,selectivity ratio,[25],256
same,Activity,[26],17.4%
same,MIC,[27],1 µg/mL
same,Activity,[28],64 µg/mL
same,Activity,[29],11.6%
same,MFC/MIC ratio,[30],8
same,MIC,[31],1 µg/mL
same,Activity,[32],128 µg/mL
same,Activity,[33],16 µg/mL
same,MIC,[34],0.02 µg/mL
same,Activity,[35],1%
same,Activity,[36],7.4%
same,Activity,[37],13.6%
same,Activity,[38],0 µg/mL
same,MIC,[39],0.125 µg/mL
same,MIC,[40],0.5 µg/mL
same,Activity,[41],5.3%
same,Activity,[42],64.6%
same,MIC,[43],0.13 µg/mL
same,Activity,[44],8 µg/mL
same,Activity,[45],0%
same,Activity,[46],80.3%
same,Activity,[47],86.4%
